Measurements from the supplement of paper PMC10307832.

Experiments:
Experiment in all cases: relative viability (nuclei count vs DMSO), 5 days (fraction); higher = more cells survive
RU-SKI 43 = compound: CC[C@@H](C)CNCC(=O)N1CCC2=C([C@@H]1COC3=CC=CC(=C3)C)C=CS2 [RU-SKI 43]
How it was run: (§1)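 On vehicle-anchored 1536-well plates, lung cancer cell lines held overnight at 37 °C were pinned with five library-drug doses (not always all listed) spaced by √10. With no medium change over 5 days, they were then fixed, permeabilised and Hoechst-stained in one step and imaged at 4×. MetaXpress counted nuclei, and viability is the median across plates of treated-well over vehicle-well nuclei. Acceptance needed control CV below 25% and at least one doubling.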

Irinotecan = compound: CCc1c2c(nc3ccc(OC(=O)N4CCC(N5CCCCC5)CC4)cc13)-c1cc3c(c(=O)n1C2)COC(=O)[C@]3(O)CC [Irinotecan]
How it was run: as §1

MK-8033 = compound: Cn1cc(-c2cnc3ccc4ccc(CS(=O)(=O)NCc5ccccn5)cc4c(=O)c3c2)cn1 [MK-8033]
How it was run: as §1

| Cell Line | relative viability (RU-SKI 43; 0.1 µM) | relative viability (RU-SKI 43; 0.3162 µM) | relative viability (RU-SKI 43; 1 µM) | relative viability (RU-SKI 43; 3.162 µM) | relative viability (RU-SKI 43; 10 µM) | relative viability (Irinotecan; 0.6325 µM) | relative viability (Irinotecan; 2 µM) | relative viability (Irinotecan; 6.325 µM) | relative viability (Irinotecan; 20 µM) | relative viability (MK-8033; 0.02 µM) | relative viability (MK-8033; 0.06325 µM) | relative viability (MK-8033; 0.2 µM) | relative viability (MK-8033; 0.6325 µM) | relative viability (MK-8033; 2 µM) |
| --- | --- | --- | --- | --- | --- | --- | --- | --- | --- | --- | --- | --- | --- | --- |
| NCI-H2085 | 0.981 | 1.01 | 1.02 | 0.975 | 0.927 | 0.824 | 0.909 | 0.75 | 0.529 | 0.931 | 0.987 | 0.959 | 0.942 | 0.984 |
| NCI-H2087 | 1.06 | 1.11 | 1.17 | 0.995 | 0.933 | 0.406 | 0.496 | 0.187 | 0.203 | 1.2 | 1.02 | 0.953 | 1.08 | 1.1 |
| NCI-H2126 | 1.01 | 0.99 | 1.05 | 1.04 | 0.985 | – | 1.07 | 0.552 | 0.387 | 0.978 | 0.901 | 0.911 | 0.976 | 1.02 |
| NCI-H2170 | 0.977 | 1.06 | 1.01 | 1.04 | 0.986 | 0.959 | 0.946 | 0.462 | 0.223 | 0.991 | 0.925 | 0.918 | 0.948 | 0.971 |
| NCI-H2228 | 0.937 | 1.27 | 1.31 | 1.01 | 0.601 | 0.706 | 0.868 | 0.484 | 0.409 | 1.03 | 0.839 | 0.878 | 1.06 | 0.89 |
| NCI-H2342 | 0.895 | 0.773 | 0.972 | 1.18 | 0.989 | 0.938 | 0.97 | 1 | 0.575 | 0.988 | 1.11 | 1.12 | 1.13 | 1.13 |
| NCI-H2347 | 0.978 | 1.09 | 1.1 | 0.97 | 0.967 | 0.789 | 0.83 | 0.483 | 0.495 | 1.02 | 1.02 | 0.984 | 1.03 | 1.04 |
| NCI-H2405 | 0.996 | 0.977 | 1.05 | 0.96 | 0.967 | – | 0.953 | 0.426 | 0.217 | 1.02 | 0.944 | 0.94 | 1.02 | 1.01 |
| NCI-H3122 | 1.06 | 1.15 | 1.08 | 1.09 | 0.983 | 0.97 | 0.625 | 0.224 | 0.176 | 0.981 | 1.03 | 0.931 | 0.985 | 1.01 |
| PC-3 [JPC-3] | 1.04 | 1.01 | 1.05 | 0.983 | 0.994 | 0.564 | 0.833 | 0.529 | 0.357 | 0.977 | – | 0.921 | 1.06 | 1 |
| PC-14 | 1.01 | 1.15 | 1.2 | 1.01 | 0.953 | 0.72 | 0.876 | 0.29 | 0.185 | 1.01 | 0.83 | 0.888 | 0.95 | 0.938 |
| RERF-LC-KJ | 1.04 | 1.12 | 1.05 | 1.01 | 0.937 | 0.871 | 0.839 | 0.542 | 0.373 | 0.999 | 1.01 | 0.934 | 1.01 | 0.948 |
| SK-LU-1 | 0.953 | 1.29 | 1.11 | 1.15 | 1.05 | 0.719 | 0.575 | 0.358 | 0.276 | 1.05 | 1.05 | 0.878 | 0.997 | 1.04 |
| SK-MES-1 | 1.05 | 1.16 | 1.01 | 1.05 | 0.977 | 0.873 | 0.799 | 0.327 | 0.236 | 0.925 | 0.935 | 0.942 | 0.96 | 0.998 |
| SW 900 | 0.716 | 0.93 | 1.02 | 0.683 | 0.62 | 0.51 | 0.787 | 0.497 | 0.432 | 0.884 | 0.684 | 0.685 | 1.03 | 0.789 |
| SW 1573 | 1.01 | 1.16 | 0.954 | 1.07 | 0.802 | 0.571 | 0.709 | 0.271 | 0.142 | 1.05 | 0.84 | 0.917 | 0.969 | 0.893 |
